Test results: patent US6740304B2, “Receptor binding conjugates” (priority 1999, dated 2004)

Target: T1, folate binding protein (FBP) (Bos taurus, UniProt P02702)
T1 construct: purchased Sigma
Assay: Binding assay on immobilised folate binding protein (Scatchard type plot)
Conditions: Scatchard type plot (FIG. 1), for the conjugate assuming at least one binding-reactive folic acid per HIgG
Excerpt: Immobilised folate binding protein (FBP) was used to investigate the binding characteristics of the folic acid conjugates. FBP (Sigma) with a binding capacity of […] folic acid per milligram protein was immobilised on high protein binding 96 well EIA/RIA assay plates (Costar Corning Inc. N.Y., USA)
FBP was labelled with ^125I by the Iodogen method and the labelled protein was isolated by eluting the reaction mixture on a PD-10 column. Purified ^125I-FBP in concentrations ranging form […] in PBS were added in to the 96 well assay plates and incubated on a rotating rack at 4° C. overnight. […] The immobilised quantities of the various concentrations of quadruplicates of ^125I FBP was determined as the ratio of L3/L1+L2 after measuring the radioactivity of the respective samples by liquid scintillation counting.
Wells were incubated with a solution of FBP in PBS and washed three times with PBS after removal of the incubation mixture. […] The specifically bound fraction of folic acid was determined by a similar method as described for ^125I-FBP, correcting for the faction of ^3H-FA retained in the wells that were preincubated with folic acid. […]
The specifically bound ^3H-FA was plotted against the concentration of ^3H-FA in a Scatchard type plot (FIG. 1). […] The following values were determined from the binding assay: […]

T1 sequence (P02702 20-234): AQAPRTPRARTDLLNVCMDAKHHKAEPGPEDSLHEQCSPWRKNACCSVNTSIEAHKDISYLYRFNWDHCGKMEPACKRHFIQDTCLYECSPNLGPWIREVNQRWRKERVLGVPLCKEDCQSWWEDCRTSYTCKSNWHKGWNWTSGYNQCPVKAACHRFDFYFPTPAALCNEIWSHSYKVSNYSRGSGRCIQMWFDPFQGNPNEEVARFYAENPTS

- Ka: 2×10^8
Substance: ^3H-Folic acid [^3H-FA]
